The subject of assay [1] is Bursaphelenchus xylophilus. In words: Occurrence of pine wilt disease after trunk injection of induced resistance candidate materials, in vivo test in young red pine trees. The note with it: red pine tree (Pinus densiflora), trunk injection 100 µℓ per tree, 30 days after inoculation. How it is done: By using the 15 types of an induced resistance elicitors which have been known to induce the plant resistance against various diseases as candidates, their controlling effect against pine wilt disease was examined. The control efficacy of candidates against pine wilt disease was analyzed according to an in vivo test using red pine tree (Pinus densiflora) which was 2-year old young pine trees (diameter of 5.5 mm or so, and height of about 35 mm).
As a candidate group of an induced resistance material, two kinds of acibenzolar-S-methyl (ASM), TDL (Tiadinil), ITL (Isotianil), PBZ (Probenzole), AZO (Azoxystrobin), VMA (Validamycin A), MeJA (Methyl jasmonate), BABA (DL-3-aminobutyric acid), 2,3-BDO (2,3-Butanediol), SA (salicyclic acid), GABA (r-Aminobutyric acid), glucan (Glucan), ER (Ergosterol), and AZA (Azelaic acid) were used. Only the use of acibenzolar-S-methyl is according to the invention. Injection of the chemicals was carried out by trunk injection method, i.e., at an angle of 45°, a borehole was created by using an electric drill with thickness of 1.5 mm on a pine stem part that is 5 to 10 cm above the soil surface, a tip (200 µℓ) was inserted to the hole, and, after dissolving the candidate material at concentration level of 200, 20, or 2 µg/mℓ in each solvent, the solution was injected in an amount of 100 µℓ per pine tree. After the injection of the chemical agent, the end part of the tip was sealed with parafilm.
The pine tree wilt nematodes (Bursaphelenchus xylophilus, National Institute of Forest Science (NIFoS), South Korea) was incubated at 25°C by feeding them with Botrytis cinerea, which have been cultured on a potato dextrose agar (PDA) medium, and after one week incubation, they were collected by Baermann funnel method and were adjusted to the level of 20,000 worms/mℓ by examining the number of the worms under an optical microscope. One week after the chemical treatment, the inoculation of the pine tree wilt nematodes was carried out by tree barking inoculation of 100 µℓ, i.e., 2,000 worms, per tree, and the result was determined 30 days after the inoculation. […] [Table 1] Occurrence rate of pine wilt disease in candidate group of induced resistance materials

Assay [2] has as its system Bursaphelenchus xylophilus. In words: In vitro nematicidal activity, 96-well microplate. The note with it: after 3 days. The protocol:
To test the nematicidal activity of acibenzolar-S-methyl, a suspension of Bursaphelenchus xylophilus was diluted in a 96-well microplate to have 50 worms/99 µℓ in each well and used for the treatment. […] Each treatment was repeated 3 times, and "A Pharm" (emamectin benzoate, 2.15%), which is a chemical pesticide, was used as a control group. After the treatment, the 96-well plate was kept in a plastic box having water-soaked wipes spread on the bottom to maintain 100% humidity, and, after covering the box with black cloth, the box was stored in a dark state with blockage of light. The observation was made after 3 days. […] [Table 2] Nematicidal activity of acibenzolar-S-methyl against Bursaphelenchus xylophilus

The test system of assay [3] is Bursaphelenchus xylophilus. The assay is described as follows: Control efficacy against pine wilt disease by trunk injection, foliar spraying or soil drenching, greenhouse, red pine trees. The class given is in vivo. The note with it: red pine tree, Trunk injection, 20,000 µg/mℓ, observed for 80 days.
For assay [4], the system named is Bursaphelenchus xylophilus. Described as above. It counts as in vivo. The note with it: red pine tree, observed for 80 days. How it is done:
The control efficacy of acibenzolar-S-methyl, which shown to have the highest activity in Example 1, was determined by three different treatment methods, i.e., trunk injection, foliar spraying, and soil drenching. For in vivo pathogenesis test, 2-year old young red pine trees (diameter of 5.5 mm or so, and height of about 35 mm) were used like Example 2.
For the trunk injection, a borehole was created at an angle of 45° by using an electric drill with thickness of 1.5 mm on a pine stem part that is 5 to 10 cm above the soil surface, a tip (200 µℓ) was inserted to the hole, and the working solution of chemicals was injected in an amount of 100 µℓ per pine tree after dissolving acibenzolar-S-methyl at concentration of 0.2 or 10 mg/mℓ in an aqueous solution containing 10% acetone and 10% methanol. After the treatment, the end part of the tip was sealed with parafilm, and a small hole was created thereon as an airflow hole. For the foliar spraying, a pre-treatment with Tween 20 (250 µg/mℓ) was carried out at 5 mℓ per pine tree to help the adsorption of the chemical on pine leaves, followed by drying for 2 hours. After drying, acibenzolar-S-methyl was dissolved at concentration of 1.6 mg/mℓ in an aqueous solution containing 10% acetone and Tween 20 (250 µg/mℓ) and the dissolved solution was filled in microsprayer and was applied 5 mℓ per pine tree by foliar spraying. For the soil drenching, acibenzolar-S-methyl was dissolved at concentration level of 0.2 mg/mℓ in an aqueous solution containing 10% acetone and Tween 20 (250 µg/mℓ), and this solution was used for soil drenching in a pot with planted pine tree, 40 mℓ per pine tree. […] [Table 3] The control efficacy of acibenzolar-S-methyl against pine wilt disease by various treatment methods

[5] abbreviates: Foliar spraying, 1,600 µg/mℓ, 5 mℓ per tree.
Where [6] appears, read: Soil drenching, 200 µg/mℓ, 40 mℓ per tree.

Turning to `O=C(O)c1ccccc1O` [SA, salicyclic acid], the “Occurrence rate of pine wilt disease: Number of pine trees showing wilt symptoms / Number of pine trees used for the test” value in assay [1] (2 µg/mℓ) is recorded as 2/3; in assay [1] (20 µg/mℓ), 1/3; in assay [1] (200 µg/mℓ), 0/3.

As for emamectin benzoate, the “Nematicidal rate (%)” value in assay [2] (0.11 µg/mℓ) was found to be 98.77%; in assay [2] (0.33 µg/mℓ), 100%; in assay [2] (1 µg/mℓ) it was 100%. Moreover, the “Control value (%)” value is given as 100% in assay [3]; 10% in assay [4] (setting [5]); “no control activity” in assay [4] (Foliar spraying, 1,600 µg/mℓ, 5 mℓ per tree, listed as emamectin benzoate); 1% in assay [4] (setting [6]); “no control activity” in assay [4] (Soil drenching, 200 µg/mℓ, 40 mℓ per tree, listed as emamectin benzoate); 7% in assay [4] (Trunk injection, 200 µg/mℓ). In addition, in assay [4] (Trunk injection, 200 µg/mℓ, listed as emamectin benzoate), the “Control value (%)” value was “not shown at all”. Besides, the “Disease occurrence rate (%)” value in assay [3] is 0%; in assay [4] (setting [5]), 64%; in assay [4] (setting [6]), 70%; in assay [4] (Trunk injection, 200 µg/mℓ) it was 66%.

Source of the values: EP3685668B1, “COMPOSITION COMPRISING ACIBENZOLAR-S-METHYL AS EFFECTIVE INGREDIENT FOR CONTROLLING BURSAPHELENCHUS XYLOPHILUS DISEASE AND METHOD FOR CONTROLLING BURSAPHELENCHUS XYLOPHILUS USING SAME” (Industry Foundation of Chonnam National University, priority 2017, dated 2019).
